In US20260242419A1, “A CYCLIC PEPTIDE FOR TRAPPING INTERLEUKIN-1 BETA” (Merck Sharp & Dohme LLC, priority 2023, published 2026):
Where two headings read alike, the source gives them in different places. Starred links: 1 amine or outer side, 2 acyl side, 3 side chain; linkers in the order of their positions; H or OH if unused. Non-standard residues stand in square brackets, D forms with d. Residues, ends and D or L forms follow the SMILES beside them. Phe(4-(5-CO2H-2-pyrimidyl)) = N[C@@H](Cc1ccc(-c2ncc(C(=O)O)cn2)cc1)C(=O)O; dPro(4R-(4-pyridylmethyl)) = O=C(O)[C@H]1C[C@@H](Cc2ccncc2)CN1; Trp(βS-Me,4-F) = C[C@@H](c1c[nH]c2cccc(F)c12)[C@H](N)C(=O)O; Bip(4'-CONH2) = NC(=O)c1ccc(-c2ccc(C[C@H](N)C(=O)O)cc2)cc1; Bip(4'-COOH) = N[C@@H](Cc1ccc(-c2ccc(C(=O)O)cc2)cc1)C(=O)O; Ala(1-bicyclo(1.1.1)pentyl) = N[C@@H](CC12CC(C1)C2)C(=O)O; Phe(4-(4-pyridyl)) = N[C@@H](Cc1ccc(-c2ccncc2)cc1)C(=O)O; dPro(4R-Bzl(4-F)) = O=C(O)[C@H]1C[C@@H](Cc2ccc(F)cc2)CN1; dPro(3S-(4-F-Bn)) = O=C(O)[C@@H]1NCC[C@@H]1Cc1ccc(F)cc1; Ala(morpholin-4-yl) = N[C@@H](CN1CCOCC1)C(=O)O; Ala(pyrimidin-5-yl) = N[C@@H](Cc1cncnc1)C(=O)O; Phe(4-CONH2) = NC(=O)c1ccc(C[C@H](N)C(=O)O)cc1; Phe(4-COOH) = N[C@@H](Cc1ccc(C(=O)O)cc1)C(=O)O; Pro(cis-4-F) = O=C(O)[C@@H]1C[C@H](F)CN1; Ala(4-THP) = N[C@@H](CC1CCOCC1)C(=O)O; X38 = O=C([C@H](Cc1ncco1)N[*:1])[*:2]; X6 = O=C([C@H](Cc1ccncn1)N[*:1])[*:2]; AEF = NCCOc1ccc(C[C@H](N)C(=O)O)cc1; cisHyp = O=C(O)[C@@H]1C[C@H](O)CN1; d(αMeD) = C[C@@](N)(CC(=O)O)C(=O)O; 4Pal = N[C@@H](Cc1ccncc1)C(=O)O; aThr = C[C@H](O)[C@H](N)C(=O)O; αMeD = C[C@](N)(CC(=O)O)C(=O)O; d(αMeS) = C[C@@](N)(CO)C(=O)O; αMeK = C[C@](N)(CCCCN)C(=O)O; Orn = NCCC[C@H](N)C(=O)O; Dab = NCC[C@H](N)C(=O)O; Aib = CC(C)(N)C(=O)O

Molecular target: T1, IL-1β (Homo sapiens, UniProt P01584)
T1 construct: purchased BioLegend 579404
T1 sequence (P01584 117-269): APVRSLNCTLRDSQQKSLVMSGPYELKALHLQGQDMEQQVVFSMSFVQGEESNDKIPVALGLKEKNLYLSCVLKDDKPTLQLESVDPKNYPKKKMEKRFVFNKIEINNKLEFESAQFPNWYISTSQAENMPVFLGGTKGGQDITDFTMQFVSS
Assay: IL-6 assay in MRC5 cells: inhibition of IL-1β induced IL-6 secretion (AlphaLISA)
Assay type: cell-based
Conditions: inhibition of IL-1β induced IL-6 secretion in MRC5 cells, read-out: MRC5 IC50
Summary of the method: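 Compound was pre-incubated 1 h at ambient temperature with recombinant human IL-1β at 2λ EC80 before adding human lung fibroblast MRC5 cells (3000/well) in EMEM with 0.025% BSA. After overnight culture at 37 °C, 5% CO2, secreted IL-6 in conditioned medium was measured by AlphaLISA; IC50 from 4-parameter logistic fits.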

[1] = compound pre-incubated 1 hour with recombinant human IL-1β

Row | Compound | IC50 [nM] | IC50 [1] [nM]
1 | CC(=O)NCCOc1ccc(C[C@@H]2NC(=O)[C@H]3C[C@@H](Cc4ccncc4)CN3C(=O)CNC(=O)[C@H](CCN)NC(=O)[C@H](CCC(N)=O)NC(=O)[C@H](Cc3ncco3)NC(=O)C(C)(C)NC(=O)[C@H](Cc3c[nH]c4ccccc34)NC(=O)[C@H](CCC(=O)O)NC(=O)C(C)(C)NC(=O)[C@H]([C@@H](C)c3c[nH]c4cccc(F)c34)NC(=O)[C@@H]3C[C@H](F)CN3C(=O)CNC(=O)[C@H](Cc3ccc(C(=O)O)cc3)NC(=O)[C@H](Cc3ccncc3)NC2=O)cc1 [Example 316] (cyclo([AEF](Ac)[4Pal][Phe(4-COOH)]G[Pro(cis-4-F)][Trp(βS-Me,4-F)][Aib]EW[Aib][X38]Q[Dab]G[dPro(4R-(4-pyridylmethyl))])) | 0.02 | 
2 | CO[C@@H](C)[C@@H]1NC(=O)[C@@](C)(CC(=O)O)NC(=O)[C@H](Cc2c[nH]c3ccccc23)NC(=O)[C@H](CO)NC(=O)C(C)(C)NC(=O)[C@H]([C@@H](C)c2c[nH]c3cccc(F)c23)NC(=O)[C@@H]2C[C@H](F)CN2C(=O)CNC(=O)[C@H](Cc2ccc(C(=O)O)cc2)NC(=O)[C@H](Cc2ccncc2)NC(=O)[C@H](Cc2ccc(-c3ccc(C(=O)O)cc3)cc2)NC(=O)[C@H]2C[C@@H](Cc3ccncc3)CN2C(=O)CNC(=O)[C@H](CCN)NC(=O)[C@H](CCC(N)=O)NC1=O [Example 254] (cyclo([Bip(4'-COOH)][4Pal][Phe(4-COOH)]G[Pro(cis-4-F)][Trp(βS-Me,4-F)][Aib]SW[d(αMeD)][aThr](Me)Q[Dab]G[dPro(4R-(4-pyridylmethyl))])) |  | 0.013
3 | C[C@@H](c1c[nH]c2cccc(F)c12)[C@@H]1NC(=O)[C@@H]2C[C@H](F)CN2C(=O)CNC(=O)[C@H](Cc2ccc(C(=O)O)cc2)NC(=O)[C@H](Cc2ccncc2)NC(=O)[C@H](Cc2ccc(-c3ccc(C(N)=O)cc3)cc2)NC(=O)[C@H]2[C@@H](Cc3ccc(F)cc3)CCN2C(=O)CNC(=O)[C@H](CCN)NC(=O)[C@H](CCC(N)=O)NC(=O)[C@H](Cc2cncnc2)NC(=O)[C@@](C)(CC(=O)O)NC(=O)[C@H](Cc2c[nH]c3ccccc23)NC(=O)[C@H](CO)NC(=O)C(C)(C)NC1=O [Example 379] (cyclo([Bip(4'-CONH2)][4Pal][Phe(4-COOH)]G[Pro(cis-4-F)][Trp(βS-Me,4-F)][Aib]SW[d(αMeD)][Ala(pyrimidin-5-yl)]Q[Dab]G[dPro(3S-(4-F-Bn))])) | 0.016 | 
4 | C[C@@H](c1c[nH]c2cccc(F)c12)[C@@H]1NC(=O)[C@@H]2C[C@H](F)CN2C(=O)CNC(=O)[C@H](Cc2ccc(C(=O)O)cc2)NC(=O)[C@H](CC23CC(C2)C3)NC(=O)[C@H](Cc2ccc(-c3ccc(C(=O)O)cc3)cc2)NC(=O)[C@H]2C[C@@H](Cc3ccncc3)CN2C(=O)CNC(=O)[C@H](CCN)NC(=O)[C@H](CCC(N)=O)NC(=O)[C@H](Cc2ccncn2)NC(=O)[C@@](C)(CC(=O)O)NC(=O)[C@H](Cc2c[nH]c3ccccc23)NC(=O)[C@H](CO)NC(=O)C(C)(C)NC1=O [Example 285] (cyclo([Bip(4'-COOH)][Ala(1-bicyclo(1.1.1)pentyl)][Phe(4-COOH)]G[Pro(cis-4-F)][Trp(βS-Me,4-F)][Aib]SW[d(αMeD)][X6]Q[Dab]G[dPro(4R-(4-pyridylmethyl))])) |  | 0.013
5 | C[C@@H](c1c[nH]c2cccc(F)c12)[C@@H]1NC(=O)[C@@H]2C[C@H](F)CN2C(=O)CNC(=O)[C@H](Cc2ccc(C(=O)O)cc2)NC(=O)[C@H](CC23CC(C2)C3)NC(=O)[C@H](Cc2ccc(-c3ccc(C(=O)O)cc3)cc2)NC(=O)[C@H]2C[C@@H](Cc3ccncc3)CN2C(=O)CNC(=O)[C@H](CO)NC(=O)[C@H](CCC(N)=O)NC(=O)[C@H](CN2CCOCC2)NC(=O)[C@@](C)(CO)NC(=O)[C@H](Cc2c[nH]c3ccccc23)NC(=O)[C@H](CCC(=O)O)NC(=O)C(C)(C)NC1=O [Example 177] (cyclo([Bip(4'-COOH)][Ala(1-bicyclo(1.1.1)pentyl)][Phe(4-COOH)]G[Pro(cis-4-F)][Trp(βS-Me,4-F)][Aib]EW[d(αMeS)][Ala(morpholin-4-yl)]QSG[dPro(4R-(4-pyridylmethyl))])) | 0.031 | 
6 | C[C@@H](c1c[nH]c2cccc(F)c12)[C@@H]1NC(=O)[C@@H]2C[C@H](F)CN2C(=O)CNC(=O)[C@H](Cc2ccc(C(=O)O)cc2)NC(=O)[C@H](Cc2ccncc2)NC(=O)[C@H](Cc2ccc(-c3ncc(C(=O)O)cn3)cc2)NC(=O)[C@H]2C[C@@H](Cc3ccncc3)CN2C(=O)CNC(=O)[C@H](CCN)NC(=O)[C@H](CCC(N)=O)NC(=O)[C@H](Cc2cncnc2)NC(=O)C(C)(C)NC(=O)[C@H](Cc2c[nH]c3ccccc23)NC(=O)[C@H](CO)NC(=O)C(C)(C)NC1=O [Example 186] (cyclo([Phe(4-(5-CO2H-2-pyrimidyl))][4Pal][Phe(4-COOH)]G[Pro(cis-4-F)][Trp(βS-Me,4-F)][Aib]SW[Aib][Ala(pyrimidin-5-yl)]Q[Dab]G[dPro(4R-(4-pyridylmethyl))])) | 0.015 | 
7 | C[C@@H](c1c[nH]c2cccc(F)c12)[C@@H]1NC(=O)[C@@H]2C[C@H](O)CN2C(=O)CNC(=O)[C@H](Cc2ccc(C(=O)O)cc2)NC(=O)[C@H](Cc2ccncc2)NC(=O)[C@H](Cc2ccc(-c3ncc(C(=O)O)cn3)cc2)NC(=O)[C@H]2C[C@@H](Cc3ccncc3)CN2C(=O)CNC(=O)[C@H](CCN)NC(=O)[C@H](CCC(N)=O)NC(=O)[C@H](Cc2cncnc2)NC(=O)C(C)(C)NC(=O)[C@H](Cc2c[nH]c3ccccc23)NC(=O)[C@H](CO)NC(=O)C(C)(C)NC1=O [Example 197] (cyclo([Phe(4-(5-CO2H-2-pyrimidyl))][4Pal][Phe(4-COOH)]G[cisHyp][Trp(βS-Me,4-F)][Aib]SW[Aib][Ala(pyrimidin-5-yl)]Q[Dab]G[dPro(4R-(4-pyridylmethyl))])) | 0.036 | 
8 | C[C@@H](c1c[nH]c2cccc(F)c12)[C@@H]1NC(=O)[C@@H]2C[C@H](F)CN2C(=O)CNC(=O)[C@H](Cc2ccc(C(=O)O)cc2)NC(=O)[C@H](Cc2ccncc2)NC(=O)[C@H](Cc2ccc(-c3ccc(C(=O)O)cc3)cc2)NC(=O)[C@H]2C[C@@H](Cc3ccc(F)cc3)CN2C(=O)CNC(=O)[C@H](CCCN)NC(=O)[C@H](CCC(N)=O)NC(=O)[C@H](Cc2cncnc2)NC(=O)C(C)(C)NC(=O)[C@H](Cc2c[nH]c3ccccc23)NC(=O)[C@H](CCC(=O)O)NC(=O)C(C)(C)NC1=O [Example 8] (cyclo([Bip(4'-COOH)][4Pal][Phe(4-COOH)]G[Pro(cis-4-F)][Trp(βS-Me,4-F)][Aib]EW[Aib][Ala(pyrimidin-5-yl)]Q[Orn]G[dPro(4R-Bzl(4-F))])) | 0.026 | 
9 | CC(=O)NCCOc1ccc(C[C@@H]2NC(=O)[C@H]3[C@@H](Cc4ccc(F)cc4)CCN3C(=O)CNC(=O)[C@H](CCN)NC(=O)[C@H](CCC(N)=O)NC(=O)[C@H](CC3CCOCC3)NC(=O)[C@@](C)(CC(=O)O)NC(=O)[C@H](Cc3c[nH]c4ccccc34)NC(=O)[C@H](CO)NC(=O)C(C)(C)NC(=O)[C@H]([C@@H](C)c3c[nH]c4cccc(F)c34)NC(=O)[C@@H]3C[C@H](F)CN3C(=O)CNC(=O)[C@H](Cc3ccc(C(N)=O)cc3)NC(=O)[C@H](CC34CC(C3)C4)NC2=O)cc1 [Example 373] (cyclo([AEF](Ac)[Ala(1-bicyclo(1.1.1)pentyl)][Phe(4-CONH2)]G[Pro(cis-4-F)][Trp(βS-Me,4-F)][Aib]SW[d(αMeD)][Ala(4-THP)]Q[Dab]G[dPro(3S-(4-F-Bn))])) | 0.012 | 
10 | C[C@@H](c1c[nH]c2cccc(F)c12)[C@@H]1NC(=O)[C@@H]2C[C@H](F)CN2C(=O)CNC(=O)[C@H](Cc2ccc(C(=O)O)cc2)NC(=O)[C@H](Cc2ccncc2)NC(=O)[C@H](Cc2ccc(-c3ccncc3)cc2)NC(=O)[C@H]2[C@@H](Cc3ccc(F)cc3)CCN2C(=O)CNC(=O)[C@H](CCN)NC(=O)[C@H](CCC(N)=O)NC(=O)[C@H](Cc2cncnc2)NC(=O)[C@@](C)(CC(=O)O)NC(=O)[C@H](Cc2c[nH]c3ccccc23)NC(=O)[C@H](CO)NC(=O)C(C)(C)NC1=O [Example 283] (cyclo([Phe(4-(4-pyridyl))][4Pal][Phe(4-COOH)]G[Pro(cis-4-F)][Trp(βS-Me,4-F)][Aib]SW[d(αMeD)][Ala(pyrimidin-5-yl)]Q[Dab]G[dPro(3S-(4-F-Bn))])) |  | 0.016
11 | C[C@@H](c1c[nH]c2cccc(F)c12)[C@@H]1NC(=O)[C@@H]2C[C@H](F)CN2C(=O)CNC(=O)[C@H](Cc2ccc(C(=O)O)cc2)NC(=O)[C@H](CC23CC(C2)C3)NC(=O)[C@H](Cc2ccc(-c3ccc(C(=O)O)cc3)cc2)NC(=O)[C@H]2C[C@@H](Cc3ccc(F)cc3)CN2C(=O)CNC(=O)[C@H](CCN)NC(=O)[C@H](CCC(N)=O)NC(=O)[C@H](CN2CCOCC2)NC(=O)[C@](C)(CCCCN)NC(=O)[C@H](Cc2c[nH]c3ccccc23)NC(=O)[C@H](CCC(=O)O)NC(=O)C(C)(C)NC1=O [Example 165] (cyclo([Bip(4'-COOH)][Ala(1-bicyclo(1.1.1)pentyl)][Phe(4-COOH)]G[Pro(cis-4-F)][Trp(βS-Me,4-F)][Aib]EW[αMeK][Ala(morpholin-4-yl)]Q[Dab]G[dPro(4R-Bzl(4-F))])) | 0.022 | 
12 | C[C@@H](c1c[nH]c2cccc(F)c12)[C@@H]1NC(=O)[C@@H]2C[C@H](F)CN2C(=O)CNC(=O)[C@H](Cc2ccc(C(=O)O)cc2)NC(=O)[C@H](Cc2ccncc2)NC(=O)[C@H](Cc2ccc(-c3ccc(C(=O)O)cc3)cc2)NC(=O)[C@H]2C[C@@H](Cc3ccc(F)cc3)CN2C(=O)CNC(=O)[C@H](CCN)NC(=O)[C@H](CCC(N)=O)NC(=O)[C@H](Cc2cncnc2)NC(=O)[C@](C)(CC(=O)O)NC(=O)[C@H](Cc2c[nH]c3ccccc23)NC(=O)[C@H](CO)NC(=O)C(C)(C)NC1=O [Example 141] (cyclo([Bip(4'-COOH)][4Pal][Phe(4-COOH)]G[Pro(cis-4-F)][Trp(βS-Me,4-F)][Aib]SW[αMeD][Ala(pyrimidin-5-yl)]Q[Dab]G[dPro(4R-Bzl(4-F))])) | 0.011 | 
